Source: patent US20060167106A1, “Compounds acting at the centrosome” (priority 2004, published 2006)
Entries after “also recorded” stand apart in the source; their conditions may differ. Residues, ends and D or L forms follow the SMILES beside them. *: point of attachment. Cbz = O=C(OCc1ccccc1)*

Key:
[1] = test system: MDA-435 breast cancer cells; experiment: Multi-ubiquitin Western blotting in MDA-435 cells; assay type: cell-based; details: for increase of ubiquitinated proteins of the cell lysates: 500 nM
Experimental: Louis, Mo.) immediately before use, on ice for 1 hour. After scraping, the lysates were cleared by centrifugation at 13,000 RPM for 10 minutes at 4° C. Protein content was determined using a Bradford assay and bovine serum albumin as a standard (Bio-Rad Laboratories, Hercules, Calif.). Samples were solubilized by boiling in SDS sample buffer and subjected to SDS-PAGE. The proteins were subsequently transferred to a PVDF membrane (Bio-Rad, Hercules, Calif.). […] The alkaline phosphatase-conjugated secondary antibodies (Invitrogen, Carlsbad, Calif.) were diluted in blocking buffer and incubated with the blot for 1 hour at room temperature. The secondary antibodies were detected by the Western Breeze Chemiluminescent Kit (Invitrogen, Carlsbad, Calif.) and imaged using a Kodak 440 Image Station. Proteins targeted for degradation by the ubiquitin-dependent proteolytic pathway are tagged with multi-ubiquitin molecules. […] In this assay, accumulation of multi-ubiquitinated proteins in the cells is indicative of the impairment of proteasome activity.

Hsp70 = Hsp70 Western blotting in MDA-435 cells; assay type: cell-based; details: 0.5 μM; for percentage change in Hsp70 expression relative to DMSO control: normalized to background and GAPDH
Experimental: Calculations of the percentage changes were made by using the automated band analysis tools of the Kodak 1D (v.3.6.3) program. Band intensities were normalized to background and GAPDH.
MDA-435 breast cancer cells were grown in 100 mm plastic-tissue culture dishes and treated for 6 and 24 hours with 0.5 μM Taxol, Compound 1, Taxol+Compound 1, MG132, ALLN, or DMSO. After treatment, cells were washed in PBS and cell lysates were prepared by adding 100 μL of lysis buffer, which contained 20 mM Tris-HCl (pH 7.5), 150 mM NaCl, 1 mM Na2EDTA, 1 mM EGTA, 1% Triton, 2.5 mM sodium pyrophosphate, 1 mM β-glycerophosphate, 1 mM Na3VO4 and 1 μg/ml leupeptin (Cell Signaling Technology, Beverly, Mass.) supplemented with 1 mM PMSF (Sigma, St. Louis, Mo.) immediately before use, on ice for 1 hour. After scraping, the lysates were cleared by centrifugation at 13,000 RPM for 10 minutes at 4° C. Protein content was determined using a Bradford assay and bovine serum albumin as a standard (Bio-Rad Laboratories, Hercules, Calif.). Samples were solubilized by boiling in SDS sample buffer and subjected to SDS-PAGE. The proteins were subsequently transferred to a PVDF membrane (Bio-Rad, Hercules, Calif.). After blocking with 5% nonfat milk in TBS for 1 hour, the blots were incubated with a mouse monoclonal anti-Hsp70 antibody, which is specific for the inducible form of Hsp70 (Clone C92F3A-5, 1:1000 dilution, Stressgen Biotechnologies Corp., Victoria, B.C., Canada) or a rabbit polyclonal anti-GAPDH antibody (1:2000 dilution, Abcam, Cambridge, Mass.) for 2 hours at room temperature. The horseradish-peroxidase-conjugated secondary antibodies, anti-mouse horse radish peroxidase, (1:2000, Bio-Rad, Hercules, Calif.) and goat anti-rabbit polyclonal horse radish peroxidase (1:2000, Abcam, Cambridge, Mass.)) were diluted in blocking buffer and incubated with the blot for 1 hour at room temperature. The secondary antibodies were detected by enhanced chemiluminescence (ECL, Amersham Biosciences, Piscataway, N.J.) and imaged using a Kodak 440 Image Station.

CHO-α-tubulin-YFP cells = experiment: α-tubulin-YFP localization in CHO-α-tubulin-YFP cells (fluorescence imaging); assay type: cell-based, Chinese hamster; details: for accumulation of tubulin-YFP at the centrosomes: 24 hours; for accumulation of tubulin in the centrosomes (overall statement): CHO-tubulin-YFP cells, concentration and time not given
Excerpt: Wild-type Chinese Hamster Ovary cells (WT CHO) cells were maintained in Ham's F-12 medium supplemented with 10% fetal bovine serum (FBS; HyClone, Logan, Utah). Cells of low density (˜20%) growing on 2-well chambered cover-slips (Labtek (Campbell, Calif.) or Fisher Scientific) were transfected with a mammalian expression vector encoding α-tubulin-YFP (Clontech, Palo Alto, Calif.) with the use of FuGENE 6 (Roche Molecular Biochemicals, Indianapolis, Ind.), according to the manufacturer's instructions. Twenty-four hours after transfection, the cells were cultured in 400 μg/ml G418 (Invitrogen, Carlsbad, Calif.)-containing selection medium for 2 weeks. Living cells were examined using a fluorescent microscope for α-tubulin-YFP expression. Cells in single colonies containing microtubules labeled with α-tubulin-YFP were lifted and expanded in G418-containing medium. Expression of α-tubulin-YFP was confirmed by the presence of the tubulin-YFP labeled microtubule pattern identical to immunostained microtubule pattern of non-transfected cells, as well as by subjecting the cells to Western blot analysis using an anti-GFP antibody (Roche Molecular Biochemicals, Basel, Switzerland) and confirming the correct mass of the α-tubulin-YFP chimera protein. Expressed tubulin-YFP was detected as a single band in Western blots. The tubulin-YFP expressing cell lines (referred as CHO-α-tubulin-YFP cells) were used in the studies.
CHO-α-tubulin-YFP cells were cultured in 2-well chambered cover-slips (Labtek (Campbell, Calif.) or Fisher Scientific) 24 hours before treatment. For comparison of the centrosomal effects of treatment with Compound 1, Compound 1+Taxol, and Taxol, CHO-α-tubulin-YFP cells were treated with Compound 1, Compound 1+Taxol, Taxol, or equivalent concentrations of DMSO-containing media for various time periods before imaging. For comparison of the effects of Compound 1 and known proteasome inhibitors on centrosomes, the nucleus, and perinuclear regions, CHO-α-tubulin-YFP cells were treated with Compound 1, ALLN (Calbiochem, San Diego, Calif.), lactacystin (Calbiochem, San Diego, Calif.) or MG132 (Calbiochem, San Diego, Calif.), and imaged at various time points from 3 hours to 24 hours after treatment.
Tubulin-YFP fluorescence in living cells or fixed cells was captured using a standard filter for FITC and objectives of 20× or 60× magnification on a Nikon TE300 microscope with a Leica DC50 color digital camera (Leica, Bannockburn, Ill.) or a CoolSnap HQ Monochrome CCD camera (Photonetrics, Tucson, Ariz.). The Leica DC50 and CoolSnapHQ cameras were controlled with Leica DC50 software and MetaVue/MetaMorph software, respectively (Universal Imaging Corp, Downingtown, Pa.).
CHO-α-tubulin-YFP cells were cultured in 2-well chambered cover-slips (Labtek (Campbell, Calif.) or Fisher Scientific) 24 hours before treatment. For comparison of effects on the centrosome, nucleus, and perinuclear regions, cells were treated with Compound 1 and known proteasome inhibitors including ALLN, MG132, Lactacystin, MG115, clasto-Lactacystin β-Lactone (cLβL), and Epoxomicin (10 μM final concentration for all except ALLN, which was used at 100 μM final concentration) (proteasome inhibitors were from Calbiochem, San Diego, Calif.) and imaged at various time points up to 24 hours during treatment.
Tubulin-YFP fluorescence in living cells or fixed cells was captured using a standard filter for FITC and objectives of 20× or 60× magnification on the Nikon TE300 microscope/digital imaging system.

[2] = biological target: T1, bovine red blood cell 20S proteasome (Bos taurus, UniProt Q32KL2); experiment: 20S Proteasome Assay (in vitro, Suc-Leu-Val-Tyr-AMC); assay type: biochemical; details: isolated 20S proteasome
T1 construct: bovine red blood cell 20S proteasome; purchased Calbiochem; host or cells: purified from bovine red blood cells
Experimental: 190 μl of reaction buffer (500 mM HEPES, 10 nM EDTA, pH 7.6), containing 0.03% SDS was pre-incubated for 5 minutes at 37° C. in the presence of 0.2 μg of bovine red blood cell 20S proteasome (Calbiochem, San Diego, Calif.) for temperature equilibration. Subsequently, inhibitors or Compound 1 were added to the reaction mixture at a final DMSO concentration of 0.5%. The reaction was initiated by adding 10 μl of the peptide-AMC substrate (Calbiochem, San Diego, Calif.) to each well. The emitted fluorescence was then measured every third minute at 37° C. for 90 minutes by a fluorescence plate reader (FlexStation II, Molecular Devices, Sunnyvale, Calif.) at 460 nm (λex360 nm) wavelength.
The buffers and reagents for the assay were purchased from Calbiochem (20S Proteasome Assay Kit; Calbiochem, San Diego, Calif.). The principle of the assay is that the release of free AMC (7-Amino-4-methylcoumarin) following degradation of the substrate results in a fluorescent signal that is a measure of proteasome activity. The quantitative analysis of 20S proteasome activity was assayed as described.

CHO cells = experiment: Cell morphology, simultaneous time-lapse imaging of CHO cells; assay type: cell-based, Chinese hamster
Experimental: CV-1 cells and CHO cells were previously cultured in 2-well chambered cover-slips for 48 hours and incubated in 15 mM HEPES buffer-containing Ham's F-12/DMEM medium with different compounds. The cells were imaged using phase contrast settings with the Nikon TE300 microscope/digital imaging system. The cells were imaged ‘simultaneously’ under control of MetaVue software by capturing frames for cells from different conditions at the same time period using a motorized automated XYZ stage.
To track the effect of Compound 1 on live cells, non-transfected CV-1 cells with were treated with 500 nM Compound 1 and phase contrast time-lapse images were taken every 10 seconds. […] A very low concentration of Taxol (10 nM) was used.

26S proteasome = experiment: Proteasome-sensor cells (HEK-293, GFP chimera), fluorescence imaging; assay type: cell-based; details: HEK-293, 100 nM, 24 hours
Excerpt: Specifically, the proteasome-sensor cells are HEK-293 cells stably transfected with a vector (proteasome-sensor vector) that encodes naturally-occurring reef coral Zoanthus sp. green fluorescent protein (GFP) fused to a specific degradation motif that targets the fusion protein for removal by the 26S proteasome. The background fluorescence observed in normal cells with active proteasomes is low. When proteasomes are inhibited, the fluorescent protein quickly accumulates. […] Millennium Pharmaceuticals, Inc., Cambridge, Mass.). […] Velcade (Millennium Pharmaceuticals Inc.) was used as a positive control in this assay (at 5 nM, 50 nM, 500 nM or 5 μM). Velcade stock solution was prepared according to the manufacturer's instructions. GFP fluorescence of the cells was imaged at various time points using a standard filter for FITC with the Nikon TE300 microscope/digital imaging system described herein.

Structure (SMILES) | increase of ubiquitinated proteins of the cell lysates ([1]; 6 hours of treatment in cell culture) | increase of ubiquitinated proteins of the cell lysates ([1]; 24 hours of treatment in cell culture) | accumulation of multi-ubiquitinated proteins ([1]; MDA-435 cells, 0.5 μM, 6 and 24 hours) | induction of Hsp70 expression (Hsp70; 6 and 24 hours) | percentage change in Hsp70 expression relative to DMSO control (Hsp70; 6 hours of treatment) [%] | percentage change in Hsp70 expression relative to DMSO control (Hsp70; 24 hours of treatment) [%] | accumulation of α-tubulin-YFP at the centrosomes (CHO-α-tubulin-YFP cells; CHO cells, 10 μM, 5 hours) | accumulation of α-tubulin-YFP in the nucleus (CHO-α-tubulin-YFP cells; CHO cells, 10 μM, 8 hours post-treatment) | accumulation of tubulin-YFP at the centrosomes (CHO-α-tubulin-YFP cells; CHO cells, 10 μM) | accumulation of tubulin in the centrosomes (overall statement) (CHO-α-tubulin-YFP cells) | accumulation of tubulin at the centrosomes versus in the nucleus (overall statement) (CHO-α-tubulin-YFP cells; cells treated, concentration not given) | proteasome inhibitory activity in vitro (overall statement) [2] | proteasome activity in vitro ([2]; 5 nM) | effect on cell morphology (CHO cells; CHO cells, 10 nM, up to 210 minutes) | cell death (CHO cells; cells, after a certain period of treatment) | accumulation of proteasome-sensor protein in cells (26S proteasome) | accumulation of tubulin-YFP at the centrosomes (CHO-α-tubulin-YFP cells; CHO cells, 0.1 μM)
CC(C)C[C@@H](C=O)NC(=O)[C@H](CC(C)C)NC(=O)[C@H](CC(C)C)NC(=O)OCc1ccccc1 [MG132] (Cbz-Leu-Leu-Leu-aldehyde) | 212.58 | 357.82 | caused similar accumulation of multi-ubiquitinated proteins | not as potent an inducer as Compound 1; also recorded: also induced Hsp70 expression after 6 and 24 hours of treatment, but did so less potently than Compound 1 or Compound 1+Taxol | 472 | 3016 | accumulation of α-tubulin-YFP at the centrosomes and perinuclear regions | accumulation of α-tubulin-YFP in the nucleus; also recorded: caused the accumulation of YFP-tubulin in the nucleus | accumulation of tubulin-YFP at the centrosomes | caused accumulation of tubulin-YFP at the centrosomes and in the perinuclear region | both accumulation of tubulin at the centrosomes and in the nucleus | exhibited proteasome inhibitory activity | detectable decrease in proteasome activity |  |  |  | 
CC(=O)O[C@H]1C(=O)[C@@]2(C)[C@H]([C@H](OC(=O)c3ccccc3)[C@]3(O)C[C@H](OC(=O)[C@H](O)[C@@H](NC(=O)c4ccccc4)c4ccccc4)C(C)=C1C3(C)C)[C@]1(OC(C)=O)CO[C@@H]1C[C@@H]2O [Taxol] |  |  |  |  | 86 | 556 |  |  |  | no such effect |  |  |  | did not cause significant cell morphological changes | cause cell death after a certain period of treatment | lack of proteasome-sensor protein in cells | lack of accumulation of tubulin-YFP at the centrosomes
